According to patent US8173360B2, “Cell death inhibitor” (Takeda Pharmaceutical Company Limited, priority 2002, dated 2012):

Experiments:
rat MIF = target: T1, rat MIF (Rattus norvegicus, UniProt P30904); test: Binding to immobilized rat MIF by surface plasmon resonance (BIACORE 3000); conditions: 10 μM in PBS, rat MIF immobilized on sensor chip CM5
T1 construct: the region encoding MIF was amplified from the complementary DNA (cDNA) library of rat and mouse brains; made in house; host or cells: Escherichia coli BL21 (DE3)
Protocol: The binding of rat MIF obtained in REFERENCE EXAMPLE 6 to Compound 1 obtained in REFERENCE EXAMPLE 1 was analyzed using BIACORE 3000 (manufactured by Biacore).
Rat MIF was immobilized on a sensor chip CM5 (manufactured by Biacore). Then, phosphate buffered saline (PBS) containing 10 μM of Compound 1 was flown over the sensor chip and changes in the surface plasmon resonance signal were monitored as the binding of the compound to rat MIF.
Rat MIF obtained in REFERENCE EXAMPLE 6 was immobilized on a sensor chip CM5 (manufactured by Biacore Co., Ltd.). Thereafter, phosphate buffered saline (PBS) containing 10 μM of 3-[2-(4-oxo-4H-1,3-benzothiazin-2-yl)-4-pyridyl]propionic acid (the compound of EXAMPLE 308 described in WO 03/020719) was flown over the sensor chip and changes in surface plasmon resonance signal were monitored as the binding of the compound to rat MIF.

[1] = test system: primary cardiomyocytes derived from rat neonates; test: Inhibition of serum depletion-induced myocardial cell death (WST-8 viable cell count); assay type: cell-based; conditions: serum depletion, 4 days, WST-8 viable cell count
Source text: Neonates (within one day after birth) were obtained from pregnant Wistar rats purchased from Charles River Japan, Inc. and anesthetized with ether. After sterilization with 70% ethanol, the heart was removed with forceps. After washing with phosphate buffered saline (manufactured by Takara Co., Ltd., T900), the heart removed was minced with surgical scissors. The pieces of tissue were washed 4 or 5 times with phosphate buffered saline to remove most of non-cardiomyocytes derived from blood. To the pieces of tissue corresponding to 10 neonates, 5 ml of an enzyme solution [which is a solution of trypsin (1.25 mg) (manufactured by Difco) and collagenase (0.25 mg) (manufactured by Sigma) in phosphate buffer (1 ml)] was added. The mixture was stirred for 15 minutes with a stirrer while maintaining at 37° C. After 2.5 ml of the enzyme solution was replenished, the mixture was stirred for further 15 minutes, and this procedure was repeated twice. Subsequently, Medium 199 (manufactured by Gibco) containing 10% fetal cow serum (manufactured Biowicker, Inc.) was added to the mixture in a half volume of the enzyme solution to terminate the enzymatic reaction. After filtering through a cell strainer (manufactured by Falcon), the mixture was centrifuged at 400×g for 5 minutes to collect the cells.
The cells were then recovered, filtered through a cell strainer and centrifuged at 400×g for 5 minutes to collect primary cardiomyocytes derived from rat neonates.
Next, the primary cardiomyocytes derived from rat neonates (corresponding 10 neonates) were suspended in 2 ml of a hypotonic solution [solution obtained by dissolving NH4Cl (8.29 g), KHCO3 (1.0 g) and EDTA/2Na (ethylenediaminetetraacetic acid disodium; manufactured by Dojin Chemical Laboratory) (37 mg) in water (1 L)]. The suspension was allowed to stand for 3 minutes to disrupt erythrocytes. To the suspension 10 ml of Medium 199 containing 10% fetal cow serum was added, and the mixture was centrifuged at 400×g for 5 minutes to collect the primary cardiomyocytes derived from rat neonates. […] An aliquot of the cardiomyocytes suspension obtained was taken out and 0.3% trypan blue was added thereto. The mixture was gently stirred and the count of cardiomyocytes was counted with a hemocytometer.
Incubation was continued for further 4 days to induce cell death. […]
The mean value (±SD) in the minimum effective concentration of Compound 1 required for inhibiting the cell death was 0.015±0.011 μM. The concentration of Compound 1 required for increasing the mean cell count by 30% when compared to the cell count without the addition of Compound 1 was determined to be the minimum effective concentration. […]

[2] = test system: Human normal articular chondrocytes; test: Inhibitory activity against cell death of human articular chondrocytes induced by NO (MTT); assay type: cell-based; conditions: 100 μM; 1.5 mM sodium nitroprusside 5 hours; mean ±SD
Protocol: Human normal articular chondrocytes (Clonetics, Inc.) were proliferated in a growth medium for articular chondrocytes (CGM, Clonetics, Inc.) in monolayer culture. Then, the cells were suspended in 1.2% alginate-containing 155 mM NaCl solution in a density of 2.0×10^6 cells/ml, and beads having a 2 mm diameter were prepared using a syringe with a 22 gauge needle. The beads were incubated in a differentiation medium for articular chondrocytes (CDM, Clonetics, Inc.) charged in a 96-well round-bottomed plate (1 bead/well, manufactured by FALCON) for further 7 days. The medium was replaced by α-modified minimum essential medium containing Compound 1 (0.1 μM or 1 μM) and 10% fetal cow serum, followed by incubation for 48 hours and then for 5 hours in the co-presence of 1.5 mM sodium nitroprusside (NO generator, manufactured by Sigma). As control drugs, caspase 3 inhibitor (Z-DEVD-FMK (SEQ ID NO: 5), 100 μM, manufactured by R & D Systems, Inc.) and caspase 9 inhibitor (Z-LEHD-FMK (SEQ ID NO: 6), 100 μM, manufactured by R & D Systems, Inc.) were similarly monitored for their activities. After completion of the experiment, alginate was removed and the cell survival rate was determined by the MTT technique.
In the table, the numerical values indicate mean values (±SD) of the cell death inhibition rates as converted from the measurement data by the MTT technique. The cell survival rate after the addition of 1.5 mM sodium nitroprusside (without addition of either Compound 1 or control drug) was 31.9%.

With `O=C(O)CCc1ccnc(-c2nc(=O)c3ccccc3s2)c1` [3-[2-(4-oxo-4H-1,3-benzothiazin-2-yl)-4-pyridyl]propionic acid] as the compound, how does the “binding of the compound to rat MIF (changes in surface plasmon resonance signal)” value (rat MIF) read?
Its value is “could be selected as the substance binding to MIF”.

With `C=CC1=C(C)c2cc3[n-]c(cc4[n-]c(cc5nc(cc1n2)C(C)=C5C=C)c(C)c4CCC(=O)O)c(CCC(=O)O)c3C.O.[Fe+2]` [hematin, reference compound] as the compound, how does the “myocardial cell death inhibitory activity” value [1] read?
Its value is “exhibit the activity of inhibiting myocardial cell death”.

Z-DEVD-FMK [reference compound] was tested. Which “Cell Death Inhibition Rate” value [2] did it give?
The value was 49.7 ± 10.3.

“Z-LEHD-FMK (Z N-cap, FMK C-terminus) [reference compound]” was tested. Which “Cell Death Inhibition Rate” value [2] did it give?
The value was 62.7 ± 10.6.

How did the “myocardial cell death inhibitory activity” value [1] turn out when hemin [reference compound] was run?
The value was “exhibit the activity of inhibiting myocardial cell death”.
